The text below walks through data of patent US9493506B2 (Enanta Pharmaceuticals, Inc., priority 2010, dated 2016).

Type in all cases: cell-based, hepatitis C virus (genotype 1a-H77)
Assay [1] has as its system HCV replicon with a D168V mutation in a 1a-H77 background. The experiment in a line: transient replicon assay, D168V mutation in 1a-H77 background. The following applies: Hepatitis C virus, read-out: EC50 in a transient replicon assay with a D168V mutation in a 1a-H77 background. The procedure:
(§1) Replicon cell lines can be maintained in Dulbecco's modified Eagles medium (DMEM) containing 100 IU/ml penicillin, […] streptomycin (Invitrogen), […] G418 (Invitrogen) and 10% (v/v) fetal bovine serum (FBS). Replicon-containing cells can be seeded into 96 well plates at a density of 5000 cells per well in 100 μl DMEM containing 5% FBS. The next day, the compound can be initially diluted in dimethyl sulfoxide (DMSO) to generate a 200× stock of the inhibitor in a series of 8 half-log dilutions. The dilution series can then be diluted 100-fold in the medium containing 5% FBS. One hundred microliters of medium with the inhibitor can be added to each well of the overnight cell culture plate already containing 100 μl of DMEM with 5% FBS. In assays where the protein binding effect on inhibitor potency is assessed, the medium from the overnight cell culture plates can be replaced with 200 μl DMEM containing 40% human plasma (Innovative Research) plus 5% FBS as well as compound. The cells can be grown for 4 days in tissue culture incubators. The inhibitory effects of compounds against the replicons can be determined by measuring either the level of luciferase or HCV RNA. The luciferase assay can be conducted using a Luciferase Assay System kit (Promega) following the manufacturer's instructions. Briefly, the cell culture medium is removed and wells are washed with 200 μl of phosphate-buffered saline. To each well Passive Lysis buffer (Promega, Wis.) is added and the plates are incubated for 30 min with rocking to lyse the cells. Luciferin solution (50 μl, Promega) is added, and luciferase activity is measured with a Victor II luminometer (Perkin-Elmer). To determine HCV RNA levels, RNA extractions can be performed using the CellsDirect kit (Invitrogen), and the HCV RNA copy number can be measured using the SuperScript III Platinum One-Step qRT-PCR system (Invitrogen) and primers specific to the HCV 5′ nontranslated region. Cytotoxicity can be determined by the 3-[4,5-dimethylhiazol-2-yl]-2,5-diphenyltetrazolium bromide (MTT) colorimetric assay as follows. Replicon cells is plated in 96-well plates (4000 cells per well), the next day compound dilutions are added as in the activity assay, and the cells are grown in the presence of the inhibitors for 4 days. The MTT solution is diluted in DMEM containing 5% FBS and 60 μl of the solution is added to the cells. After 4 hrs, the cells are solubilized by the addition of 30 […]μl SDS (20% in 0.02 N HCl). The plates are incubated overnight and the optical density can be measured at 570 nm. To determine compounds' EC50 and TD50, luciferase, RNA inhibition and MTT data can be analyzed using the GraphPad Prism 4 software (equation: sigmoidal dose-response—variable slope).
(§2) The 1a-H77 replicon for transient assays further differs from the replicon in the stable cell line in that it contains NS2 through NS5B in the second cistron. The 1b-N strain replicon contains NS3 through NS5B in the second cistron, with adaptive mutations E1202G in NS3 and S2204I in NS5A. Mutagenesis can be performed using the Stratagene QuikChange XL II site-directed mutagenesis kit. Mutants' sequences can be confirmed, plasmids can be linearized with Xba I restriction enzyme and used as template for in vitro transcription reactions to make mutant replicon RNA for transient transfections. In vitro transcription can be performed with the T7 Megascript kit (Ambion).
(§3) Transient replicon transfections can be performed essentially as described by Mo et al. (Antimicrob Agents Chemother (2005) 49(10):4305-4314) with slight modifications. Fifteen micrograms of template RNA can be used to electroporate 3×10^6 cells in a 200 μl volume in a 0.2 cm cuvette. The cells used for transient transfections can be Huh7 cells obtained by curing replicon-containing cells with IFN (Mo et al., supra). Electroporation can be done with a Gene Pulser II (Bio-Rad, CA) at 480V and 25 μF, using two manual pulses. […]
For orientation: Replicon systems follow genome replication, usually without infectious particles.

Assay [2] has as its system HCV replicon with a R155K mutation in a 1a-H77 background. The assay can be described thus: transient replicon assay, R155K mutation in 1a-H77 background. The following applies: Hepatitis C virus, read-out: EC50 in a transient replicon assay with a R155K mutation in a 1a-H77 background. The procedure: as §1, §2, §3
Assay [3] concerns HCV replicon with a D168E mutation in a 1a-H77 background. The experiment in a line: transient replicon assay, D168E mutation in 1a-H77 background. The settings on record: Hepatitis C virus, read-out: EC50 in a transient replicon assay with a D168E mutation in a 1a-H77 background. The procedure:
as §1, §2, §3

SMILES strings stand for the structures.

A word on the EC50: it is the midpoint of the concentration-response curve. Consider `CC(C)(C)C(=O)N[C@H]1CCCCC/C=C\[C@@H]2C[C@@]2(C(=O)NS(=O)(=O)C2CC2)NC(=O)[C@@H]2C[C@@H](Oc3nc4ccccc4nc3C(C)(F)F)CN2C1=O` [Example 4, (2R,6S,13aS,14aR,16aS,Z)—N-(cyclopropylsulfonyl)-2-(3-(1,1-difluoroethyl)quinoxalin-2-yloxy)-5,16-dioxo-6-pivalamido-1,2,3,5,6,7,8,9,10,11,13a,14,14a,15,16,16a-hexadecahydrocyclopropa[e]pyrrolo[1,2-a][1,4]diazacyclopentadecine-14a-carboxamide], for which the figures for the EC50 in assay [1], in assay [2] and in assay [3] were 0.05 to 0.25 µM, 0.001 to 0.01 µM and 0.003 to 0.02 µM, respectively.

Turning to `Cc1ccsc1C(=O)N[C@H]1CCCCC/C=C\[C@@H]2C[C@@]2(C(=O)NS(=O)(=O)C2CC2)NC(=O)[C@@H]2C[C@@H](Oc3nc4ccccc4nc3C(F)(F)F)CN2C1=O` [Example 14], the EC50 is 0.025 to 0.05 µM in assay [1], below 0.001 µM in assay [2] and 0.003 to 0.02 µM in assay [3].

For the molecule `CC(C)(C)OC(=O)N[C@H]1CCCCC/C=C\[C@@H]2C[C@@]2(C(=O)NS(=O)(=O)C2(C)CC2)NC(=O)[C@@H]2C[C@@H](Oc3nc4cc(F)ccc4nc3C(F)(F)F)CN2C1=O` [Example 110, tert-butyl (2R,6S,13aS,14aR,16aS,Z)-2-(7-fluoro-3-(trifluoromethyl)quinoxalin-2-yloxy)-14a-(1-methylcyclopropylsulfonylcarbamoyl)-5,16-dioxo-1,2,3,5,6,7,8,9,10,11,13a,14,14a,15,16,16a-hexadecahydrocyclopropa[e]pyrrolo[1,2-a][1,4]diazacyclopentadecin-6-ylcarbamate], the EC50 in assay [1] is 0.025 to 0.05 µM; in assay [2], below 0.001 µM; in assay [3], 0.003 to 0.02 µM.

Regarding `CC1(S(=O)(=O)NC(=O)[C@@]23C[C@H]2/C=C\CCCCC[C@H](NC(=O)c2ccon2)C(=O)N2C[C@H](Oc4nc5cc(F)ccc5nc4C(F)(F)F)C[C@H]2C(=O)N3)CC1` [Example 109, N-((2R,6S,13aS,14aR,16aS,Z)-2-(7-fluoro-3-(trifluoromethyl)quinoxalin-2-yloxy)-14a-(1-methylcyclopropylsulfonylcarbamoyl)-5,16-dioxo-1,2,3,5,6,7,8,9,10,11,13a,14,14a,15,16,16a-hexadecahydrocyclopropa[e]pyrrolo[1,2-a][1,4]diazacyclopentadecin-6-yl)isoxazole-3-carboxamide], the EC50 was below 0.025 µM in assay [1], below 0.001 µM in assay [2] and below 0.003 µM in assay [3].

`CCc1nc2cccc(F)c2nc1O[C@@H]1C[C@H]2C(=O)N[C@]3(C(=O)NS(=O)(=O)C4CC4)C[C@H]3/C=C\CCCCC[C@H](NC(=O)c3cc(C)on3)C(=O)N2C1` [Example 162, N-((2R,6S,13aS,14aR,16aS,Z)-14a-(cyclopropylsulfonylcarbamoyl)-2-(3-ethyl-8-fluoroquinoxalin-2-yloxy)-5,16-dioxo-1,2,3,5,6,7,8,9,10,11,13a,14,14a,15,16,16a-hexadecahydrocyclopropa[e]pyrrolo[1,2-a][1,4]diazacyclopentadecin-6-yl)-5-methylisoxazole-3-carboxamide]: the EC50 in assay [1] lay in the range of 0.05 to 0.25 µM; in assay [2] it was 0.001 to 0.01 µM; in assay [3], 0.003 to 0.02 µM.

`Cc1onc(C(=O)N[C@H]2CCCCC/C=C\[C@@H]3C[C@@]3(C(=O)NS(=O)(=O)C3CC3)NC(=O)[C@@H]3C[C@@H](Oc4nc5ccccc5nc4C(C)(F)F)CN3C2=O)c1C` [Example 6, N-((2R,6S,13aS,14aR,16aS,Z)-14a-(cyclopropylsulfonylcarbamoyl)-2-(3-(1,1-difluoroethyl)quinoxalin-2-yloxy)-5,16-dioxo-1,2,3,5,6,7,8,9,10,11,13a,14,14a,15,16,16a-hexadecahydrocyclopropa[e]pyrrolo[1,2-a][1,4]diazacyclopentadecin-6-yl)-4,5-dimethylisoxazole-3-carboxamide]: the concentration for a half-maximal effect (EC50) is 0.05 to 0.25 µM in assay [1], 0.001 to 0.01 µM in assay [2] and below 0.003 µM in assay [3].

Consider `Cc1nc2cccc(F)c2nc1O[C@@H]1C[C@H]2C(=O)N[C@]3(C(=O)NS(=O)(=O)C4CC4)C[C@H]3/C=C\CCCCC[C@H](NC(=O)OC(C)(C)C)C(=O)N2C1` [Example 54, tert-butyl (2R,6S,13aS,14aR,16aS,Z)-14a-(cyclopropylsulfonylcarbamoyl)-2-(8-fluoro-3-methylquinoxalin-2-yloxy)-5,16-dioxo-1,2,3,5,6,7,8,9,10,11,13a,14,14a,15,16,16a-hexadecahydrocyclopropa[e]pyrrolo[1,2-a][1,4]diazacyclopentadecin-6-ylcarbamate], for which the EC50 in assay [1] lay in the range of 0.05 to 0.25 µM; in assay [2] it was 0.001 to 0.01 µM; in assay [3] it was 0.02 to 0.05 µM.

Turning to `CC(C)[C@@H](C(=O)N[C@H]1CCCCC/C=C\[C@@H]2C[C@@]2(C(=O)NS(=O)(=O)C2CC2)NC(=O)[C@@H]2C[C@@H](Oc3nc4ccccc4nc3C(F)(F)F)CN2C1=O)N1CCCNC1=O` [Example 19, (2R,6S,13aS,14aR,16aS,Z)—N-(cyclopropylsulfonyl)-6-((S)-3-methyl-2-(2-oxotetrahydropyrimidin-1(2H)-yl)butanamido)-5,16-dioxo-2-(3-(trifluoromethyl)quinoxalin-2-yloxy)-1,2,3,5,6,7,8,9,10,11,13a,14,14a,15,16,16a-hexadecahydrocyclopropa[e]pyrrolo[1,2-a][1,4]diazacyclopentadecine-14a-carboxamide], the figures for the EC50 in assay [1], in assay [2] and in assay [3] were above 1 µM, above 0.05 µM and above 0.1 µM, respectively.

Take `Cc1cc(C(=O)N[C@H]2CCCCC/C=C\[C@@H]3C[C@@]3(C(=O)NS(=O)(=O)C3CC3)NC(=O)[C@@H]3C[C@@H](Oc4nc5ccccc5nc4C(F)(F)F)CN3C2=O)[nH]n1` [Example 13]: the EC50 was 0.25 to 1 µM in assay [1], 0.01 to 0.025 µM in assay [2] and above 0.1 µM in assay [3].

Regarding `CCc1nc2ccc(F)cc2nc1O[C@@H]1C[C@H]2C(=O)N[C@]3(C(=O)NS(=O)(=O)C4(C)CC4)C[C@H]3/C=C\CCCCC[C@H](NC(=O)OC(C)(C)C)C(=O)N2C1` [Example 125, tert-butyl (2R,6S,13aS,14aR,16aS,Z)-2-(3-ethyl-7-fluoroquinoxalin-2-yloxy)-14a-(1-methylcyclopropylsulfonylcarbamoyl)-5,16-dioxo-1,2,3,5,6,7,8,9,10,11,13a,14,14a,15,16,16a-hexadecahydrocyclopropa[e]pyrrolo[1,2-a][1,4]diazacyclopentadecin-6-ylcarbamate], the results for the half-maximal effective concentration (EC50) in assay [1], in assay [2] and in assay [3] were 0.025 to 0.05 µM, below 0.001 µM and 0.003 to 0.02 µM, respectively.

Take `CC(C)(C)OC(=O)N[C@H]1CCCCC/C=C\[C@@H]2C[C@@]2(C(=O)NS(=O)(=O)C2CC2)NC(=O)[C@@H]2C[C@@H](Oc3nc4ccccc4nc3C(C)(F)F)CN2C1=O` [Example 1, tert-butyl (2R,6S,13aS,14aR,16aS,Z)-14a-(cyclopropylsulfonylcarbamoyl)-2-(3-(1,1-difluoroethyl)quinoxalin-2-yloxy)-5,16-dioxo-1,2,3,5,6,7,8,9,10,11,13a,14,14a,15,16,16a-hexadecahydrocyclopropa[e]pyrrolo[1,2-a][1,4]diazacyclopentadecin-6-ylcarbamate]: the EC50 is 0.05 to 0.25 µM in assay [1], below 0.001 µM in assay [2] and 0.003 to 0.02 µM in assay [3].
